From patent publication US20060173632A1, “Method for predicting effectiveness of chemotherapy” (SYSMEX CORPORATION, priority 2005, published 2006)

Tests used:
Format in all cases: in vivo
Set-up in all cases: key: Type I mouse is a mouse confirmed to highly sensitive to the anticancer agent. By administering paclitaxel into this type of mouse, the tumor almost disappeared; Type II mouse is a mouse whose sensitivity to the anticancer agent was confirmed to be moderate. By administering paclitaxel into this type of mouse, the increase in tumor size is suppressed; Type III mouse is a mouse confirmed to be poor in sensitivity to the anticancer agent. Even if paclitaxel is administered into this type of mouse, the tumor size continues increasing
[1] = tested on: human-derived breast cancer cultured cells (cell A); experiment: Paclitaxel effect on tumor size in mice grafted with breast cancer cells A; conditions: Cell A graft; paclitaxel 20 mg/kg/day once a day for 5 day; change in tumor size to day 11; one line per mouse
Procedure: (§1) Five kinds of human-derived breast cancer cultured cells (cells A to E) were transplanted subcutaneously into the back of mice, and the mice were maintained for 21 to 28 days to graft the breast tumor cells thereon. 50 mice (Nos. 1 to 50 (Table 2)) on which the breast tumor cells had been grafted were thus created. From the back of each of these mice, a 2.5 mm×2.5 mm tissue section (about 50 mg) was cut off, and a lysis buffer (containing 0.1 w/v % Nonidet P-40 (NP-40) (manufactured by Calbiochem), 50 mM Tris-HCl (pH 7.4), 5 mM EDTA, 50 mM sodium fluoride, 1 mM sodium orthovanadate and 100 μl/ml protease cocktail (Sigma)) was added to this tissue section. The tissue section in the lysis buffer was homogenized with an electric homogenizer.
(§2) 20 mg/kg (mouse weight)/day of paclitaxel was administered once a day into each of mice Nos. 1 to 50 for 5 day. The tumor size from the initiation of administration to day 11 was measured. Depending on change in tumor size, mice Nos. 1 to 50 were classified into types I, II and III. Type I mouse is a mouse confirmed to highly sensitive to the anticancer agent. By administering paclitaxel into this type of mouse, the tumor almost disappeared. Type II mouse is a mouse whose sensitivity to the anticancer agent was confirmed to be moderate. By administering paclitaxel into this type of mouse, the increase in tumor size is suppressed. […]

[2] = tested on: human-derived breast cancer cultured cells (cell B); experiment: Paclitaxel effect on tumor size in mice grafted with breast cancer cells B; conditions: Cell B graft; paclitaxel 20 mg/kg/day once a day for 5 day; change in tumor size to day 11; one line per mouse
Procedure: as §1, §2

[3] = tested on: human-derived breast cancer cultured cells (cell C); experiment: Paclitaxel effect on tumor size in mice grafted with breast cancer cells C; conditions: Cell C graft; paclitaxel 20 mg/kg/day once a day for 5 day; change in tumor size to day 11; one line per mouse
Procedure: as §1, §2

[4] = tested on: human-derived breast cancer cultured cells (cell D); experiment: Paclitaxel effect on tumor size in mice grafted with breast cancer cells D; conditions: Cell D graft; paclitaxel 20 mg/kg/day once a day for 5 day; change in tumor size to day 11; one line per mouse
Procedure: as §1, §2

[5] = tested on: human-derived breast cancer cultured cells (cell E); experiment: Paclitaxel effect on tumor size in mice grafted with breast cancer cells E; conditions: Cell E graft; paclitaxel 20 mg/kg/day once a day for 5 day; change in tumor size to day 11; one line per mouse
Procedure: as §1, §2

## CC(=O)O[C@H]1C(=O)[C@@]2(C)[C@H]([C@H](OC(=O)c3ccccc3)[C@]3(O)C[C@H](OC(=O)[C@H](O)[C@@H](NC(=O)c4ccccc4)c4ccccc4)C(C)=C1C3(C)C)[C@]1(OC(C)=O)CO[C@@H]1C[C@@H]2O [paclitaxel]
[1]
  result of (4): Type I
[2]
  result of (4): Type II
[3]
  result of (4): Type II
[4]
  result of (4): Type III
[5]
  result of (4): Type III
